{"source": "patent US12678433B2", "about": "“Compounds for treatment of hemolysis-and inflammasome-associated diseases” (New York Blood Center, Inc., priority 2020, dated 2026)", "key": {"[1]": {"tested_on": "DOCK8", "experiment": "DOCK8 expression and DOCK8hi/DOCK8lo subsets in stimulated B cells", "type": "cell-based, human", "details": "heme 5 μM", "from_the_text": "We next tested the effect of cell-free heme on DOCK8 signaling during B cell differentiation. […] Heme treatment led to inhibition of CD27^hiBlimp-1^+ plasma cell differentiation (FIG. 2D, p=0.0195)."}, "[2]": {"tested_on": "purified naïve B cells from healthy donors", "method": "Hemin and RBC lysate preparation. Hemin, dissolved in dimethyl sulfoxide (DMSO), stock concentration 10 mM, was diluted to 100 μM with serum-free RPMI 1640 culture medium just prior to addition to B cell cultures. For short-term experiments lasting less than 24 hr, a final concentration of 10 μM hemin was used whereas for longer-term culture up to 7 days, 2.5-5 μM final heme concentration was used. RBC lysates were freshly prepared (containing ~80 g/L hemoglobin) for same day use. Briefly, 4 ml whole blood from healthy donors was passed through Acrodisc WBC syringe filter (Pall Corporation) to remove white blood cells followed by two washes with Dulbecco's Phosphate Buffered Saline (D-PBS) (200×g, 10 min at room temperature with no brake) for removal of platelets. The RBC pellet was lysed with 3 times volume of distilled water for 10 min at 37° C. Cellular debris was pelleted by centrifugation at 4000×g for 10 min at 4° C. The RBC lysate was transferred to a new tube and 1/9 volume of 10×D-PBS added.\nCell isolation and culture. Peripheral blood mononuclear cells (PBMCs) were prepared by Ficoll (GE Healthcare) density gradient centrifugation from healthy donor leukopak products as well as from sickle peripheral blood apheresis waste bags. Human naïve and memory B cells were isolated from PBMCs using a human memory B Cell Isolation Kit (Miltenyi Biotec) by collecting CD27− B cells (naïve B cells) and CD27+ B cell (memory B cells) separately. […] RPMI 1640 culture medium was used for all cell culture experiments (supplemented with 10% FBS, 100-unit penicillin-streptomycin, […], 1 mM sodium pyruvate, all from Thermo Fisher Scientific). Purified B cells were stained with CFSE (Cat #: C34554, Thermo Fisher Scientific) and cultured in U-bottom 96 well plates (2.5×10^5/well/200 μl culture medium) in the presence of goat anti-human IgA+IgG+IgM (H+L) F(ab′)2 fragment (2.5 μg/ml, Jackson ImmunoResearch), CD154 (10 ng/ml, R&D Systems) and CpG (ODN 7909, 1 nM, Cat #: tlrl-2006-1) without IL-2 for analysis of only CD38+ plasmablast differentiation or with IL-2 (5 ng/ml, Cat #:1081-IL-020, R&D Systems) in experiments to detect CD27^hiBlimp-1+ plasma cells. In addition, heme and various inhibitors were added to the cultures at the start point and incubated for 7 days.\nCultured cells: stimulated B cells were transferred into U bottom 96 well plate and washed with 200 μl MACS buffer (D-PBS containing 0.5% BSA and 2 mM EDTA) at 300×g for 5 min at 4° C. After one wash, cells were stained for surface expression of CD19, CD38, CD27 using 25 μl staining buffer (anti-CD19, CD38, CD27 antibodies, diluted 200 fold with MACS buffer) for 30 min at 4° C. After one wash with 200 μl MACS buffer, cells were resuspended in 100 μl D-PBS and 50 μl Fixable Viability Dye eFluor™ 780 (1000 fold diluted with D-PBS, Thermo Fisher Scientific) was added for dead cell detection for 5 min at room temperature. Cells were washed one time with MACS buffer and 100 μl D-DPS was added just before flow cytometric analysis (LSRFortessa flow cytometer, BD Bioscience). For intracellular staining of IgG, Blimp-1 and HO-1, samples were first washed with 200 μl MACS buffer before addition of 150 μl Fixation/Permeabilization buffer (Thermo Fisher Scientific) for 45 min at 4° C. After fixation, samples were washed twice with 1× Permeabilization buffer (Thermo Fisher Scientific) and stained with 25 μl intracellular staining buffer (anti-human IgG, DOCK8, Blimp-1, HO-1 antibodies, diluted 200 fold with 1× Permeabilization buffer) for 45 min at 4° C., after which the cells were washed twice with Permeabilization buffer and 100p D-DPS was added prior to flow cytometric analysis."}, "[3]": {"tested_on": "HO-1", "experiment": "HO-1 expression in stimulated B cells", "type": "cell-based, human", "details": "stimulated B cells treated with heme 2.5 or 5 μM", "from_the_text": "HO-1 is a key enzyme for heme degradation with multiple biologic activities attributed to its enzymatic byproducts. We analyzed HO-1 expression levels in human B cells before and after stimulation with our polyclonal B cell activation cocktail. […] We also found higher HO-1 levels in DOCK8^hi plasma cells (FIG. 8B)."}, "[4]": {"tested_on": "CD27+ memory B cells from healthy donors", "experiment": "7-day stimulated memory B cell culture", "type": "cell-based, human", "details": "different doses of hemin, 7 days", "from_the_text": "FIG. 6A-G. Effect of heme on memory plasmablast differentiation and IgG class-switch B cell development. FIG. 6A: Gating strategy for single live B cell analysis after culture. FIG. 6B: Fold change in CD38+ plasmablast cells in 7-day stimulated HD purified CD27+ memory B cells (as described for naïve B cell cultures in FIG. 1) in the presence of different doses of hemin relative to no hemin treatment. FIG. 6C: Histogram showing IgG expression levels in CD38+ plasmablasts from naïve B cell stimulated cultures. FIG. 6D: Fold change of IgG+ cell frequency in CD38+ plasmablasts in the presence of 2.5 μM or 5 μM hemin relative to no hemin treatment in stimulated naïve B cells from HD, Allo(−) and Allo(+) SCD patients. FIG. 6E: Naïve B cells from HD were cultured with 20% SCD patients' sera from Allo(−) or Allo(+) patients and stimulated with B cell activation cocktail for 7 days as described. Frequency of CD38+ plasmablasts is shown. FIG. 6F: Fold change of proliferated B cell frequency (within total, live B cells) in the presence of 2.5 μM or 5 μM hemin relative to no hemin treatment in stimulated naïve B cells from HD, Allo(−) and Allo(+) SCD patients. FIG. 6G: The change and fold change of live cell frequency in total 7-day stimulated HD B cell in the presence of different concentrations of hemin.\nCell isolation and culture."}, "[5]": {"details": "HD naïve B cells, 7 days, highest heme concentration tested (5 μM)"}}, "note": "Where two headings read alike, the source gives them in different places.", "data": [{"smiles": "C=CC1=C(C)c2cc3[n-]c(cc4[n-]c(cc5nc(cc1n2)C(C)=C5C=C)c(C)c4CCC(=O)O)c(CCC(=O)O)c3C.[Fe+2]", "note": "[heme, iron(III) complex of protoporphyrin IX]", "values": [{"measurement": "reduction in DOCK8hi subset", "setting": "[1]", "result": "61.6%±6.5%"}, {"measurement": "reduction in DOCK8lo subset", "setting": "[1]", "result": "34.1%±5.9%"}, {"measurement": "effect on B cell proliferation", "setting": "[2]; 2.5 μM heme", "result": "minor inhibition"}, {"measurement": "effect on differentiation of naïve B cells into plasmablasts", "setting": "[2]; 2.5 μM heme", "result": "robust inhibitory effect"}, {"measurement": "B cell class switch recombination (percent IgG+ B cells)", "setting": "[2]; 2.5 or 5 μM hemin", "result": "not affected"}, {"measurement": "inhibition of B cell proliferation", "setting": "[2]; [5]", "result": "6.8%±1.3%"}, {"measurement": "inhibition of plasmablast cell differentiation", "setting": "[2]; [5]", "result": "52.7%±8.0%"}, {"measurement": "effect on B cell proliferation", "setting": "[2]; heme 2.5 μM, SnPPIX 2.5 μM, alone or together", "result": "little to no effect"}, {"measurement": "CD27hiBlimp-1+ plasma cell differentiation", "setting": "[2]; heme 2.5 or 5 μM, 7 days", "result": "inhibition"}, {"measurement": "percentage of viable B cells", "setting": "[2]; highest dose of heme used", "result": "high"}, {"measurement": "HO-1 expression", "setting": "[3]", "result": "further induced"}, {"measurement": "effect on memory B cell proliferation or differentiation", "setting": "[4]", "result": "no effect"}]}]}
